Assay results as given in ChEMBL document CHEMBL4196088, “Induction of cell killing and autophagy by amphiphilic pyrrolidine derivatives on human pancreatic cancer cells” (Eur J Med Chem, 2018).
The source made the active and inactive calls. The rule behind the calls is not given here.

What was measured:
SK-BR-3 = test: Growth inhibition of human SKBR3 cells after 72 hrs; format: functional, cell-based; settings: SK-BR-3, 72 h
NCI-H460 = test: Growth inhibition of human NCI-H460 cells after 72 hrs; format: functional, cell-based; settings: NCI-H460, 72 h
ACHN = test: Growth inhibition of human ACHN cells after 72 hrs; format: functional, cell-based
HeLa = test: Growth inhibition of human HeLa cells after 72 hrs; format: functional, cell-based
Jurkat = test: Growth inhibition of human Jurkat cells after 72 hrs; format: functional, cell-based
BXPC-3 [1] = test: Induction of apoptosis in human BxPC3 cells assessed as accumulation at sub-G0/G1 phase harboring pSFFV-Bcl-XL at 20 uM after 48 hrs by propidium iodide staining based flow cytometry (reference value: 1.3%); format: functional
PANC-1 [2] = test: Induction of apoptosis in human PANC1 cells assessed as accumulation at sub-G0/G1 phase at 20 uM after 24 hrs by propidium iodide staining based flow cytometry (reference value: 0.6 to 0.7%); format: functional
PANC-1 [3] = test: Induction of apoptosis in human PANC1 cells assessed as accumulation at sub-G0/G1 phase at 20 uM after 48 hrs by propidium iodide staining based flow cytometry (reference value: 0.2 to 2.9%); format: functional
PANC-1 [4] = test: Induction of apoptosis in human PANC1 cells assessed as accumulation at sub-G0/G1 phase at 20 uM after 72 hrs by propidium iodide staining based flow cytometry (reference value: 1.6 to 3.2%); format: functional
Fibroblast [5] = test: Induction of apoptosis in human primary fibroblasts at 20 uM after 24 hrs by propidium iodide staining based flow cytometry (reference value: 4.8%); format: cell-based
BXPC-3 [6] = test: Induction of apoptosis in human BxPC3 cells assessed as accumulation at sub-G0/G1 phase at 20 uM by propidium iodide staining based flow cytometry; format: functional, cell-based; settings: TDE = time-dependent effect
PANC-1 [7] = test: Induction of apoptosis in human PANC1 cells assessed as accumulation at sub-G0/G1 phase at 10 uM after 24 hrs by propidium iodide staining based flow cytometry (reference value: 0.6 to 0.7%); format: functional
PANC-1 [8] = test: Induction of apoptosis in human PANC1 cells assessed as accumulation at sub-G0/G1 phase at 10 uM after 72 hrs by propidium iodide staining based flow cytometry (reference value: 1.6 to 3.2%); format: functional
BXPC-3 [9] = test: Induction of apoptosis in human BxPC3 cells harboring pSFFV-Bcl-XL assessed as accumulation at sub-G0/G1 phase at 20 uM by propidium iodide staining based flow cytometry; format: functional, cell-based; settings: TDE = time-dependent effect
PANC-1 [10] = test: Induction of apoptosis in human PANC1 cells assessed as accumulation at sub-G0/G1 phase at 20 uM by propidium iodide staining based flow cytometry; format: functional, cell-based; settings: TDE = time-dependent effect
BXPC-3 [11] = test: Induction of apoptosis in human BxPC3 cells assessed as accumulation at sub-G0/G1 phase at 10 uM after 72 hrs by propidium iodide staining based flow cytometry (reference value: 3.4%); format: functional
BXPC-3 [12] = test: Induction of apoptosis in human BxPC3 cells harboring pSFFV-Bcl-XL assessed as accumulation at sub-G0/G1 phase at 10 uM after 72 hrs by propidium iodide staining based flow cytometry (reference value: 2%); format: functional
PK9 [13] = test: Induction of apoptosis in human PK9 cells assessed as accumulation at sub-G0/G1 phase at 10 uM after 72 hrs by propidium iodide staining based flow cytometry (reference value: 4%); format: functional
Fibroblast [14] = test: Induction of apoptosis in human primary fibroblasts assessed as accumulation at sub-G0/G1 phase at 10 uM after 24 hrs by propidium iodide staining based flow cytometry (reference value: 4.8%); format: cell-based
Fibroblast [15] = test: Induction of apoptosis in human primary fibroblasts assessed as accumulation at sub-G0/G1 phase at 10 uM after 48 hrs by propidium iodide staining based flow cytometry (reference value: 6.1%); format: cell-based
Fibroblast [16] = test: Induction of apoptosis in human primary fibroblasts assessed as accumulation at sub-G0/G1 phase at 10 uM after 72 hrs by propidium iodide staining based flow cytometry (reference value: 6.7%); format: cell-based
MIA PaCa-2 [17] = test: Induction of apoptosis in human MIAPaCa2 cells assessed as early apoptotic cells at 20 uM after 24 hrs by Annexin V-FITC/propidium iodide staining based flow cytometry (reference value: 5.16%); format: functional
MIA PaCa-2 [18] = test: Induction of apoptosis in human MIAPaCa2 cells assessed as live cells at 20 uM after 48 hrs by Annexin V-FITC/propidium iodide staining based flow cytometry (reference value: 86.79%); format: functional
MIA PaCa-2 [19] = test: Induction of apoptosis in human MIAPaCa2 cells assessed as necrotic cells at 20 uM after 48 hrs by Annexin V-FITC/propidium iodide staining based flow cytometry (reference value: 0.63%); format: functional
BXPC-3 [20] = test: Induction of apoptosis in human BxPC3 cells assessed as increase in cleaved PARP protein expression at 20 uM after 15 to 48 hrs by Western blot analysis; format: functional, cell-based
BXPC-3 [21] = test: Induction of apoptosis in human BxPC3 cells assessed as accumulation at sub-G0/G1 phase at 20 uM after 24 to 48 hrs in presence of caspase inhibitor zVAD-fmk by propidium iodide staining based flow cytometry; format: functional, cell-based
BXPC-3 [22] = test: Induction of autophagy in human BxPC3 cells assessed as increase in LC3-2 protein expression at 20 uM after 48 hrs in presence of autophagy inhibitor bafilomycin A1 by Western blot analysis; format: functional, cell-based
BXPC-3 [23] = test: Induction of autophagy in human BxPC3 cells assessed as increase in LC3-2 protein expression at 20 uM after 48 hrs in presence of autophagy inhibitor 3-MA by Western blot analysis; format: functional, cell-based
PK9 [24] = test: Induction of apoptosis in human PK9 cells harboring BECN1 shRNA at 20 uM after 24 hrs by Annexin V/7-AAD staining based flow cytometry; format: functional, cell-based
PK9 [25] = test: Induction of apoptosis in human PK9 cells harboring ATG7 shRNA at 20 uM after 24 hrs by Annexin V/7-AAD staining based flow cytometry; format: functional, cell-based
BXPC-3 [26] = test: Growth inhibition of human BxPC3 cells after 72 hrs by XTT assay; format: functional, cell-based; settings: BXPC-3, 72 h
PANC-1 [27] = test: Growth inhibition of human PANC1 cells after 72 hrs by XTT assay; format: functional, cell-based; settings: PANC-1, 72 h

Structure (SMILES) | Activity (BXPC-3 [1]) [%] | Activity (PANC-1 [2]) [%] | Activity (PANC-1 [3]) [%] | Activity (PANC-1 [4]) [%] | Activity (Fibroblast [5]) [%] | Activity (PANC-1 [7]) [%] | Activity (PANC-1 [8]) [%] | Activity (BXPC-3 [11]) [%] | Activity (BXPC-3 [12]) [%] | Activity (PK9 [13]) [%] | Activity (Fibroblast [14]) [%] | Activity (Fibroblast [15]) [%] | Activity (Fibroblast [16]) [%] | Activity (MIA PaCa-2 [17]) [%] | Activity (MIA PaCa-2 [18]) [%] | Activity (MIA PaCa-2 [19]) [%] | Activity (BXPC-3 [20]) | Activity (BXPC-3 [21]) | other results
CCCCCC/C=C\CCCCCCCCOC[C@H]1NC[C@H](O)[C@@H]1O | 6.7 | 5.3 | 14.5 | 27.1 | 9.2 | 6.7 | 18.6 | 20.8 | 4.1 | 6.5 | 7.9 | 8.7 | 9.5 | 11.88 | 4.4 | 3.44 | Active | inactive | IC50 (SK-BR-3): 6 µM; IC50 (NCI-H460): 9 µM; IC50 (ACHN): 3 µM; IC50 (HeLa): 2 µM; IC50 (Jurkat): 1 µM; Activity (BXPC-3 [6]): Tde; Activity (BXPC-3 [9]): Tde; Activity (PANC-1 [10]): Tde; Activity (BXPC-3 [22]): Active; Activity (BXPC-3 [23]): inactive; Activity (PK9 [24]): Active; Activity (PK9 [25]): Active
CCCCCCCCCCCCCCCCCCOCC(COP(=O)([O-])OCC[N+](C)(C)C)OC (stereo not given) [EDELFOSINE] | 5 | 8.46 | 16.2 | 23.2 | 7.3 | 3.2 | 15.8 | 24.3 | 2.6 | 10.3 | 5.2 | 7.2 | 8.7 | 28.49 | 2.49 | 1.79 | Active | inactive | IC50 (BXPC-3 [26]): 18.8 µM; IC50 (PANC-1 [27]): 25.7 µM
